Earlier results, collected in US8309108B2, “Intranasal compositions” (Archimedes Development Limited, priority 2007, dated 2012).
Where a name gives a salt, the structure may show the parent alone.

Settings: room temperature

Saturated aqueous solubility: around 20 mg/ml
Structure (SMILES): CN1CCc2cccc3c2C1Cc1ccc(O)c(O)c1-3 (stereo not shown) [apomorphine hydrochloride, 6aβ-aporphine-10,11-diol]
